Results published in patent publication US8906868B2, “Aminoglycoside derivatives” (Rempex Pharmaceuticals, Inc., priority 2010, dated 2014).

Tests used:
[1] = Aminoglycoside cytotoxicity in HK-2 cells (Alamar Blue); assay type: cell-based, Human; details: human
Method: (§1) Human kidney cortex proximal tubule cells (HK-2) were purchased from ATCC and maintained according to manufacturer's recommendations in Keratinocyte Serum-Free Media (SFM; Invitrogen), with 0.05 mg/ml bovine pituitary extract and 5 ng/ml of Epidermal growth factor.
(§2) Solutions of aminoglycosides at a concentration of 50 mg/mL (both control and novel test compounds) were prepared in sterile deionized water. Before treatment of cells, the concentrated drug solutions were diluted to the appropriate concentration in Keratinocyte SFM {20, 10, 5, 2.5, 1.25, 0.6, 0.3, and 0 mM}. Pentamidine was used as a positive control.
(§3) HK-2 cells were seeded at 2.5*10^4 cells/well density in 96-well plates in Keratinocyte SFM and placed in a 37° C. tissue culture CO2 incubator. […]. Each treatment was performed in duplicate. […] Drug solutions were aspirated and replaced with 0.1 ml of 5% Alamar Blue (Abd Serotec) cell proliferation reagent in Keratinocyte SFM. Plates were read on a Molecular Devices Gemini EM fluorometer pre-warmed at 37° C. at […]. Plates were read at 0 and 4 hrs, and were incubated at 37° C. in a CO2 incubator in between reads. The fluorescence signal at the 0 h timepoint was subtracted from that at 4 h to account for background fluorescence.
(§4) The cytotoxicity data were reported as the amount of drug producing a 50% decrease in Alamar Blue signal relative to the no drug treatment control.

EC1002 aph(3′)-IV = assay: organism not typed; assay type: cell-based
Method in brief: (§5)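 CLSI broth microdilution; CaMHB; 2-fold dilutions; 5×10^5 CFU/ml; 18 h, 35° C; OD600 turbidity plus visual check for MIC.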

[2] = tested on: Acinetobacter baumannii (ATCC 19606); assay: MIC, broth microdilution; details: QC strain, Table 2
PAM3073 aac(6′)-I = assay: microbe, parasite or virus in culture; assay type: cell-based, Pseudomonas aeruginosa; details: Table 5
Method in brief: (§6)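 CLSI broth microdilution in CaMHB; 2-fold serial dilutions; 5×10^5 CFU/ml final inoculum; 18 h, 35° C; OD600 turbidity plus visual check.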

PAM3072 aac(6′)-II = assay: microbe, parasite or virus in culture; assay type: cell-based, Pseudomonas aeruginosa; details: Table 5
Method in brief: as §6

[3] = tested on: Klebsiella pneumonia (ATCC 43816); assay: MIC, broth microdilution; details: QC strain, Table 2
[4] = tested on: Escherichia coli (ATCC 25922); assay: MIC, broth microdilution
ECM6003 rmtB = assay: microbe, parasite or virus in culture; assay type: cell-based, Escherichia coli; details: Table 3
Method in brief: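 Broth microdilution per CLSI M7-A7 in cation-adjusted Mueller Hinton broth with 2-fold serial dilutions and 5×10^5 CFU/ml inoculum. Incubated 18 hours at 35 °C; MIC read by turbidity at 600 nm and confirmed visually.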

ECM6006 aph(3′)-III = assay: microbe, parasite or virus in culture; assay type: cell-based, Escherichia coli
Method in brief: as §5

ECM6011 aph(3′)-I = assay: microbe, parasite or virus in culture; assay type: cell-based, Escherichia coli
Method in brief: as §5

ECM6009 aac(3)-II = assay: microbe, parasite or virus in culture; assay type: cell-based, Escherichia coli
Method in brief: as §5

ECM6010 ant(2″)-I = assay: microbe, parasite or virus in culture; assay type: cell-based, Escherichia coli
Method in brief: as §5

[5] = tested on: Pseudomonas aeruginosa (ATCC 27853); assay: MIC, broth microdilution
[6] = tested on: Staphylococcus aureus (ATCC 29213); assay: MIC, broth microdilution
[7] = tested on: Human kidney cortex proximal tubule cells (HK-2); assay: Aminoglycoside cytotoxicity in HK-2 cells (Alamar Blue); assay type: cell-based; details: HK-2 cells, 50% decrease in Alamar Blue signal; read-out: IC50 @ 24 hrs
Method: as §1, §2, §3, §4

[8] = tested on: ECM6007 aac(6′) + aph(2″); assay: microbe, parasite or virus in culture; assay type: cell-based, Escherichia coli; details: Table 4
Method in brief: as §6

EC1001 acc(6′)-Ib = assay: microbe, parasite or virus in culture; assay type: cell-based, Escherichia coli; details: Table 4
Method in brief: as §6

Sa 287 aac(6′) + aph(2″) = assay: microbe, parasite or virus in culture; assay type: cell-based, Staphylococcus aureus; details: Table 5
Method in brief: as §6

ACM1005 ATCC 19004 = assay: MIC, broth microdilution; assay type: cell-based, Acinetobacter baumannii; details: Table 4
Method in brief: as §6

ACM1006 acc(6′)-Ib = assay: microbe, parasite or virus in culture; assay type: cell-based, Acinetobacter baumannii; details: Table 4
Method in brief: as §6

## NCC[C@H](O)C(=O)N[C@@H]1C[C@H](N)[C@@H](O[C@H]2O[C@H](CN)CC[C@H]2N)[C@H](O)[C@H]1O[C@H]1O[C@H](CO)[C@@H](O)[C@H](N)[C@H]1O [Arbekacin, reference compound]
[1]
  IC50 at 24 h: > 20 mM

## Gentamicin [reference compound]
EC1002 aph(3′)-IV
  Compound MIC on Bacterial Strains: EC1002 aph(3′)-IV: B (key: A: MIC of 1 μg/ml or less; B: MIC of greater than 1 μg/ml to 8 μg/ml; MIC of greater than 8 μg/ml)
[2]
  Compound MIC on Bacterial Strains: A. baumannii ATCC 19606: C (MIC of greater than 8 μg/ml)
PAM3073 aac(6′)-I
  Compound MIC on Bacterial Strains: Pseudomonas aeruginosa PAM3073 aac(6′)-I: B (MIC of greater than 1 μg/ml to 8 μg/ml)
PAM3072 aac(6′)-II
  Compound MIC on Bacterial Strains: Pseudomonas aeruginosa PAM3072 aac(6′)-II: C (MIC of greater than 8 μg/ml)
[3]
  Compound MIC on Bacterial Strains: K. pneumonia ATCC 43816: A (MIC of 1 μg/ml or less)
[4]; QC strain, Table 2
  Compound MIC on Bacterial Strains: E. coli ATCC 25922: A (MIC of 1 μg/ml or less)
[4]; Table 3
  Compound MIC on Bacterial Strains: ECM6000 ATCC 25922: A (MIC of 1 μg/ml or less)
[4]; Table 4
  Compound MIC on Bacterial Strains: Escherichia coli ECM6000 ATCC 25922: A (MIC of 1 μg/ml or less)
ECM6003 rmtB
  Compound MIC on Bacterial Strains: ECM6003 rmtB: C (MIC of greater than 8 μg/ml)
ECM6006 aph(3′)-III
  Compound MIC on Bacterial Strains: ECM6006 aph(3′)-III: B (key: A: MIC of 1 μg/ml or less; B: MIC of greater than 1 μg/ml to 8 μg/ml; MIC of greater than 8 μg/ml)
ECM6011 aph(3′)-I
  Compound MIC on Bacterial Strains: ECM6011 aph(3′)-I: B (key: A: MIC of 1 μg/ml or less; B: MIC of greater than 1 μg/ml to 8 μg/ml; MIC of greater than 8 μg/ml)
ECM6009 aac(3)-II
  Compound MIC on Bacterial Strains: ECM6009 aac(3)-II: C (key: A: MIC of 1 μg/ml or less; B: MIC of greater than 1 μg/ml to 8 μg/ml; MIC of greater than 8 μg/ml)
ECM6010 ant(2″)-I
  Compound MIC on Bacterial Strains: ECM6010 ant(2″)-I: C (key: A: MIC of 1 μg/ml or less; B: MIC of greater than 1 μg/ml to 8 μg/ml; MIC of greater than 8 μg/ml)
[5]; QC strain, Table 2
  Compound MIC on Bacterial Strains: P. aeruginosa ATCC 27853: A (MIC of 1 μg/ml or less)
[5]; Table 5
  Compound MIC on Bacterial Strains: Pseudomonas aeruginosa PAM3034 ATCC 27853: A (MIC of 1 μg/ml or less)
[6]; QC strain, Table 2
  Compound MIC on Bacterial Strains: S. aureus ATCC 29213: A (MIC of 1 μg/ml or less)
[6]; Table 5
  Compound MIC on Bacterial Strains: Staphylococcus aureus SAM1000 ATCC 29213: A (MIC of 1 μg/ml or less)
[7]
  IC50: > 20 mM
[8]
  Compound MIC on Bacterial Strains: Escherichia coli ECM6007 aac(6′) + aph(2″): B (MIC of greater than 1 μg/ml to 8 μg/ml)
EC1001 acc(6′)-Ib
  Compound MIC on Bacterial Strains: Escherichia coli EC1001 acc(6′)-Ib: B (MIC of greater than 1 μg/ml to 8 μg/ml)
Sa 287 aac(6′) + aph(2″)
  Compound MIC on Bacterial Strains: Staphylococcus aureus Sa 287 aac(6′) + aph(2″): C (MIC of greater than 8 μg/ml)
ACM1005 ATCC 19004
  Compound MIC on Bacterial Strains: Acinetobacter baumannii ACM1005 ATCC 19004: A (MIC of 1 μg/ml or less)
ACM1006 acc(6′)-Ib
  Compound MIC on Bacterial Strains: Acinetobacter baumannii ACM1006 acc(6′)-Ib: B (MIC of greater than 1 μg/ml to 8 μg/ml)
